Experimental data as given in US20090098195A1 (priority 2004, published 2009).
Values joined by “and” are separate entries in the source; they are usually repeats but may differ in a detail not shown here. Identical values can stand only once. Like-named read-outs stand apart in the source and are kept apart here.

How the values were obtained:
[1] = system: influenza virus A/PR/8/34 (H1N1); assay type: cell-based; conditions: liposomes containing the peptide; egg PC concentration of 1 mM (peptide concentration: 0.15 mM); vs liposome without peptide
[2] = assay type: binding; conditions: GM3 monolayer, QCM
[3] = assay type: binding; conditions: 6′GM3 monolayer, QCM
[4] = assay type: binding; conditions: LacCer monolayer, QCM
[5] = assay type: binding; conditions: GalCer monolayer, QCM
[6] = assay type: binding; conditions: QCM; data not shown

Substance | percent inhibition of infection [1] | Kd [2] | Δmmax (maximum binding amount) [2] | Kd [3] | Δmmax (maximum binding amount) [3] | Kd [4] | Δmmax (maximum binding amount) [4] | Kd [5] | Δmmax (maximum binding amount) [5] | binding to glycosphingolipids [6]
ARLSPTMVHPRGAQP [A1 peptide, reference compound] | 76% | – | – | – | – | – | – | – | – | –
GWWYKGRARPVSAVA [c01-peptide, H-GWWYKGRARPVSAVA-NH2] | 83% | 1.8 µM | 46 ng cm^−2 and 46 ± 2.4 ng cm^−2 | 4 ± 1.1 µM | 93 ± 4.6 ng cm^−2 | 4.8 ± 1.6 µM | 74 ± 5.2 ng cm^−2 | 13 ± 3.3 µM | 64 ± 4.5 ng cm^−2 | –
H-AETVESCLAKPHTEN-NH2 [control peptide] | – | – | – | – | – | – | – | – | – | bound to none of the glycosphingolipids
RAVWRHSVATPSHSV [c03-peptide, H-RAVWRHSVATPSHSV-NH2] | 94% | 0.34 µM | 11 ng cm^−2 and 11 ± 0.1 ng cm^−2 | 7 ± 2.2 µM | 56 ± 3.1 ng cm^−2 | 5.9 ± 1.2 µM | 37 ± 1.8 ng cm^−2 | – | <3 ng cm^−2 | –
